Assay results taken from ChEMBL document CHEMBL1130658 (Bioorg Med Chem Lett, 1998).

Tests used:
[1] = biological target: MAP kinase p38 (Homo sapiens, UniProt O15264+Q15759+Q16539+P53778); assay: Compound was tested for inhibition of p38 MAP kinase; type: protein assay
[2] = species: Mus musculus; assay: Effective dose required to determine the oral activity in the mouse LPS-induced TNF alpha assay; type: functional
[3] = biological target: CYP2D6 (Homo sapiens, UniProt P10635); assay: Percent inhibition of human hepatic cytochrome P450 2D6 at 10 uM; type: ADME
Sequence of CYP2D6 (P10635 whole entry): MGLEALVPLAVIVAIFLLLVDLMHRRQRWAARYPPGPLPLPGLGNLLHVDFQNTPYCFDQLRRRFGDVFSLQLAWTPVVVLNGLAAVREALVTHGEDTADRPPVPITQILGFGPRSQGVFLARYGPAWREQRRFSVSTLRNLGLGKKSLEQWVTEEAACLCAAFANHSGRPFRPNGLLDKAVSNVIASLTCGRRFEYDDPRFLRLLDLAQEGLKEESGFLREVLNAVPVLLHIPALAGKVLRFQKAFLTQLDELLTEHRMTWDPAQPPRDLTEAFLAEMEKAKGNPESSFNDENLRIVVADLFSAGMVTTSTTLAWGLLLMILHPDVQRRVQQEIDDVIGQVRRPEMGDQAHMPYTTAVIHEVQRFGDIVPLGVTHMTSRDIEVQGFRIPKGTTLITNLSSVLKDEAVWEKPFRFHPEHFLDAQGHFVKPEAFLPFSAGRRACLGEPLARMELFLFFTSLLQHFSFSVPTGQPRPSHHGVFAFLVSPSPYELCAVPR

[4] = system: Mus musculus; assay: Effective dose required to determine the oral activity in the mouse LPS-induced TNF alpha assay at a dose of 50 mg/kg; type: functional
[5] = system: Mus musculus; assay: Effective dose required to determine the oral activity in the mouse LPS-induced TNF alpha assay at a dose of 50 mg/Kg; type: functional

| Compound | IC50 [1] [µM] | ED50 [2] [mg/kg] | inhibition at 10 µM [3] [%] | inhibition in vivo at 50 mg/kg [4] [%] | inhibition in vivo at 50 mg/kg [5] [%] |
| --- | --- | --- | --- | --- | --- |
| CSc1nc(N)cc(-c2c(-c3ccc(F)cc3)ncn2CCCN2CCOCC2)n1 | > 17 | – | – | – | – |
| CNc1nccc(-c2c(-c3ccc(F)cc3)ncn2CCCN2CCOCC2)n1 | 1.9 | 19 | 11 | – | – |
| C[S+]([O-])c1nccc(-c2c(-c3ccc(F)cc3)ncn2CCCN2CCOCC2)n1 (stereo not drawn) | 2.2 | – | – | 37 | – |
| COc1cc(-c2c(-c3ccc(F)cc3)ncn2CCCN2CCOCC2)ncn1 | > 17 | – | – | – | – |
| CSc1nccc(-c2c(-c3ccc(F)cc3)ncn2CCCN2CCOCC2)n1 | 2 | 43 | 47 | – | – |
| Cc1cc(-c2c(-c3ccc(F)cc3)ncn2CCCN2CCOCC2)cc(C)n1 | > 17 | – | – | – | – |
| COc1nccc(-c2c(-c3ccc(F)cc3)ncn2CCCN2CCOCC2)n1 | – | 14 | 7 | – | – |
| Nc1nccc(-c2c(-c3ccc(F)cc3)ncn2CCCN2CCOCC2)n1 | – | – | 47 | – | – |
| Fc1ccc(-c2ncn(CCCN3CCOCC3)c2-c2ccncn2)cc1 | – | 12 | 34 | – | – |
| Cc1nccc(-c2c(-c3ccc(F)cc3)ncn2CCCN2CCOCC2)n1 | 1.3 | – | 19 | – | 65 |
| Cc1cc(-c2c(-c3ccc(F)cc3)ncn2CCCN2CCOCC2)nc(N)n1 | > 17 | – | – | – | – |
| CN(C)c1nccc(-c2c(-c3ccc(F)cc3)ncn2CCCN2CCOCC2)n1 | 3.6 | – | – | – | – |
| Cc1cc(-c2c(-c3ccc(F)cc3)ncn2CCCN2CCOCC2)ccn1 | 2.1 | – | 51 | 37 | – |
| CC(=O)Nc1cc(-c2c(-c3ccc(F)cc3)ncn2CCCN2CCOCC2)ncn1 | 3.5 | – | – | 21 | – |
| CC(=O)Nc1nccc(-c2c(-c3ccc(F)cc3)ncn2CCCN2CCOCC2)n1 | 0.46 | – | – | 12 | – |
| Nc1cc(-c2c(-c3ccc(F)cc3)ncn2CCCN2CCOCC2)ncn1 | > 17 | – | – | – | – |
| Oc1nccc(-c2c(-c3ccc(F)cc3)ncn2CCCN2CCOCC2)n1 | 5.5 | – | – | 33 | – |
| Fc1ccc(-c2ncn(CCCN3CCOCC3)c2-c2ccncc2)cc1 [SB-210313] | – | 42 | 86 | – | – |
